{"source": "ChEMBL document CHEMBL5608218", "about": "“Identification of 6,9-dihydro-5H-pyrrolo[3,2-h]quinazolines as a new class of F508del-CFTR correctors for the treatment of cystic fibrosis” (Eur J Med Chem, 2024)", "type_in_all_cases": "cell-based", "key": {"[1]": {"tested_on": "Cystic fibrosis transmembrane conductance regulator (Homo sapiens), P13569 [F508del]", "sequence (P13569 as listed by the source)": "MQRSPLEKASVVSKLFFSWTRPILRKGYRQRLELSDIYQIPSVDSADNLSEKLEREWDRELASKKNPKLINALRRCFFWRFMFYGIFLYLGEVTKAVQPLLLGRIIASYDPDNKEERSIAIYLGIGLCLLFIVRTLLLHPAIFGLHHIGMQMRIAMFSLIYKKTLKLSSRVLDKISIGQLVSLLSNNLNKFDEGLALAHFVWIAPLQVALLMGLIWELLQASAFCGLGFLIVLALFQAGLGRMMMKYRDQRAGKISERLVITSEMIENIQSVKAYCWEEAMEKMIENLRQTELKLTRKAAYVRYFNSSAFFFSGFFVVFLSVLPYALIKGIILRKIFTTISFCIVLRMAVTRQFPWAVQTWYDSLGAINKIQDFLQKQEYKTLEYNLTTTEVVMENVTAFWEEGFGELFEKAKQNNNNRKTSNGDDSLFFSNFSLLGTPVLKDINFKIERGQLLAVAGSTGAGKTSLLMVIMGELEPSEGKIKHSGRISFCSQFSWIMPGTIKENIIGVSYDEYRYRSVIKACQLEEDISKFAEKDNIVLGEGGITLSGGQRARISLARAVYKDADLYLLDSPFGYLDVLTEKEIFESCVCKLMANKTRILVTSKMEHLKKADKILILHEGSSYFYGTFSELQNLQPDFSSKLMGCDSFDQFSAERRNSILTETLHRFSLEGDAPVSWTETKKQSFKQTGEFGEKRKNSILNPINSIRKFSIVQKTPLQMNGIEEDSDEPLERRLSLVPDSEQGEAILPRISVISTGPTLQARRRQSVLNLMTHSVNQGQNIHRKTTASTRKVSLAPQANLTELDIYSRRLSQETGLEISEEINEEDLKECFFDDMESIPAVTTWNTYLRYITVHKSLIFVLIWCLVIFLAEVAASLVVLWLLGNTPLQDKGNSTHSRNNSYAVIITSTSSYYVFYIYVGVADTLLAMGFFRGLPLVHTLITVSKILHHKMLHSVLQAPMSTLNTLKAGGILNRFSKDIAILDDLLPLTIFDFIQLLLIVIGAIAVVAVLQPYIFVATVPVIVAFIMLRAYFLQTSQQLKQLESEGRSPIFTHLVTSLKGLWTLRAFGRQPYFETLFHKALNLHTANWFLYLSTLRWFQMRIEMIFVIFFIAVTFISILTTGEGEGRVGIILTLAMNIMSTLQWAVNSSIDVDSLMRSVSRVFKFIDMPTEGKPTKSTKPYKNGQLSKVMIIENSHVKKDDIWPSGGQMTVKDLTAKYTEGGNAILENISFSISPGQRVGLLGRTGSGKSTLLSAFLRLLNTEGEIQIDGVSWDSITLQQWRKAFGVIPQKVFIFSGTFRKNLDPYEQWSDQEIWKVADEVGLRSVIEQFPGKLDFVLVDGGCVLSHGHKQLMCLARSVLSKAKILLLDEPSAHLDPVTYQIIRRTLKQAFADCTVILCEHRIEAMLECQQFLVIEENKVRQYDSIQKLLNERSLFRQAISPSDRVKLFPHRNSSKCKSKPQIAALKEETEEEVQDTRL", "test": "(§1) Corrector activity at CFTR F508del mutant (unknown origin) expressed in human CFBE41o- cells co-expressing halide-sensitive yellow fluorescent protein assessed as increase in iodide influx at 1 to 10 uM preincubated with compound for 24 hrs in presence of VX-809 followed by compound washout and measured after 30 mins of stimulation with forskolin/genistein by fluorescence microplate reader", "conditions": "filed as activator, dose 1-10 µM"}, "[2]": {"tested_on": "Cystic fibrosis transmembrane conductance regulator (Homo sapiens), P13569 [F508del]", "test": "as §1, with “hrs” for “hrs in presence of VX-809”", "conditions": "dose 1-10 µM"}, "[3]": {"molecular_target": "T1, Cystic fibrosis transmembrane conductance regulator (Homo sapiens, UniProt P13569, F508DEL)", "T1 sequence (P13569 as listed by the source)": "as above", "test": "as §1, with “influx” for “influx at 1 to 10 uM”"}, "[4]": {"tested_on": "Cystic fibrosis transmembrane conductance regulator (Homo sapiens), P13569 [F508del]", "test": "as §1, with “by measuring fold change” for “at 1 to 10 uM”, “reader relative to VX-809 alone” for “reader”", "conditions": "filed as activator"}, "[5]": {"tested_on": "Cystic fibrosis transmembrane conductance regulator (Homo sapiens), P13569 [F508del]", "test": "as §1, with “at” for “at 1 to”, “VX-445” for “VX-809”"}, "[6]": {"molecular_target": "T1, Cystic fibrosis transmembrane conductance regulator", "test": "as §1, with “influx” for “influx at 1 to 10 uM”, “hrs” for “hrs in presence of VX-809”"}, "[7]": {"tested_on": "Cystic fibrosis transmembrane conductance regulator (Homo sapiens), P13569 [F508del]", "test": "as §1, with “at” for “at 1 to”, “corr-4a” for “VX-809”", "conditions": "filed as activator"}}, "note": "Activity calls are given as the source filed them. The rule behind the calls is not given here."}
{"smiles": "CCOC(=O)c1cc2c(n1Cc1cccc(C)c1)-c1nc(NS(=O)(=O)c3ccccc3)ncc1CC2", "values": [{"measurement": "Activity", "setting": "[1]", "result": "Active"}]}
{"smiles": "CCOC(=O)c1cc2c(n1Cc1cccc(Br)c1)-c1nc(NS(=O)(=O)c3ccccc3)ncc1CC2", "values": [{"measurement": "Activity", "setting": "[2]", "result": "inactive"}]}
{"smiles": "CCOC(=O)c1c(Br)c2c(n1Cc1ccc(F)c(Br)c1)-c1nc(NS(=O)(=O)c3ccccc3)ncc1CC2", "values": [{"measurement": "Activity", "setting": "[1]", "result": "Active"}, {"measurement": "Activity", "setting": "[2]; filed as activator", "result": "Active"}]}
{"smiles": "CCOC(=O)c1cc2c(n1Cc1ccc(Br)cc1)-c1nc(NS(=O)(=O)c3ccccc3)ncc1CC2", "values": [{"measurement": "Activity", "setting": "[2]", "result": "inactive"}]}
{"smiles": "Cc1cccc(Cn2c(C(=O)OC(C)C)c(Br)c3c2-c2nc(NS(=O)(=O)c4ccccc4)ncc2CC3)c1", "values": [{"measurement": "Activity", "setting": "[1]", "result": "Active"}]}
{"smiles": "CCOC(=O)c1c(Br)c2c(n1Cc1ccc(Br)cc1)-c1nc(NS(=O)(=O)c3ccccc3)ncc1CC2", "values": [{"measurement": "Activity", "setting": "[1]", "result": "Active"}, {"measurement": "Activity", "setting": "[2]", "result": "inactive"}]}
{"smiles": "CCOC(=O)c1c(Br)c2c(n1Cc1cccc(C)c1)-c1nc(NS(=O)(=O)c3ccccc3)ncc1CC2", "values": [{"measurement": "Activity", "setting": "[1]", "result": "Active"}]}
{"smiles": "CCOC(=O)c1c(Br)c2c(n1Cc1ccc(F)cc1)-c1nc(NS(=O)(=O)c3ccccc3)ncc1CC2", "values": [{"measurement": "Activity", "setting": "[2]", "result": "inactive"}]}
{"smiles": "CCOC(=O)c1cc2c(n1CC1CC1)-c1nc(NS(=O)(=O)c3ccccc3)ncc1CC2", "values": [{"measurement": "Activity", "setting": "[2]", "result": "inactive"}]}
{"smiles": "CCOC(=O)c1c(Br)c2c(n1Cc1cccc(Br)c1)-c1nc(NS(=O)(=O)c3ccccc3)ncc1CC2", "values": [{"measurement": "EC50", "setting": "[3]", "result": 2120, "unit": "nM"}, {"measurement": "fold change (FC)", "setting": "[4]", "result": 2.3}, {"measurement": "Activity", "setting": "[1]", "result": "Active"}, {"measurement": "Activity", "setting": "[5]", "result": "inactive"}, {"measurement": "EC50", "setting": "[6]", "result": 3080, "unit": "nM"}, {"measurement": "Activity", "setting": "[7]", "result": "Active"}, {"measurement": "Activity", "setting": "[2]; filed as activator", "result": "Active"}]}
{"smiles": "CCOC(=O)c1cc2c(n1Cc1ccc(C)cc1)-c1nc(NS(=O)(=O)c3ccccc3)ncc1CC2", "values": [{"measurement": "Activity", "setting": "[2]", "result": "inactive"}]}
{"smiles": "CCOC(=O)c1cc2c(n1Cc1ccc(F)c(Br)c1)-c1nc(NS(=O)(=O)c3ccccc3)ncc1CC2", "values": [{"measurement": "Activity", "setting": "[1]", "result": "Active"}, {"measurement": "Activity", "setting": "[2]; filed as activator", "result": "Active"}]}
{"smiles": "CCOC(=O)c1c(Br)c2c(n1CC1CC1)-c1nc(NS(=O)(=O)c3ccccc3)ncc1CC2", "values": [{"measurement": "Activity", "setting": "[1]", "result": "Active"}, {"measurement": "Activity", "setting": "[2]", "result": "inactive"}]}
{"smiles": "CCOC(=O)c1c(Br)c2c(n1Cc1ccc(C)c(C)c1)-c1nc(NS(=O)(=O)c3ccccc3)ncc1CC2", "values": [{"measurement": "Activity", "setting": "[1]", "result": "Active"}, {"measurement": "Activity", "setting": "[2]; filed as activator", "result": "Active"}]}
{"smiles": "CCOC(=O)c1c(Br)c2c(n1Cc1ccc(C)cc1)-c1nc(NS(=O)(=O)c3ccccc3)ncc1CC2", "values": [{"measurement": "Activity", "setting": "[2]", "result": "inactive"}]}
{"smiles": "CCOC(=O)c1c(Br)c2c(n1Cc1cccc(C)c1)-c1[nH]c(=O)c(S(=O)(=O)c3ccccc3)cc1CC2", "values": [{"measurement": "EC50", "setting": "[3]", "result": 450, "unit": "nM"}, {"measurement": "fold change (FC)", "setting": "[4]", "result": 2.4}, {"measurement": "Activity", "setting": "[5]", "result": "inactive"}, {"measurement": "EC50", "setting": "[6]", "result": 750, "unit": "nM"}, {"measurement": "Activity", "setting": "[7]", "result": "Active"}]}
{"smiles": "CCOC(=O)c1c(Cl)c2c(n1Cc1cccc(C)c1)-c1nc(NS(=O)(=O)c3ccccc3)ncc1CC2", "values": [{"measurement": "EC50", "setting": "[3]", "result": 1880, "unit": "nM"}, {"measurement": "fold change (FC)", "setting": "[4]", "result": 2.1}, {"measurement": "Activity", "setting": "[1]", "result": "Active"}, {"measurement": "Activity", "setting": "[5]", "result": "inactive"}, {"measurement": "EC50", "setting": "[6]", "result": 3140, "unit": "nM"}, {"measurement": "Activity", "setting": "[7]", "result": "Active"}]}
